Columns and labels:
3T3 cells = experiment: Effects of Gd concentration and levitation on cell viability (live/dead assay of spheroids); assay type: cell-based; conditions: 48 hours exposure to 0, 25, 50, 100 mM Gd^+; magnetic levitation (LEV) and hanging drop (HD); FIG. 30
Method: Referring now to FIG. 30, the effects of Gd concentration and levitation on cell viability are illustrated. 3T3 cells were exposed for 48 hours to different concentration of Gd^+ (0, 25, 50, 100 mM) during magnetic levitation (LEV) and hanging drop (HD). Spheroid viability was then assessed with live/dead assay (calcein/ethidium homodimer^−1). […] The white scale bar is 100 μm.

red blood cells = test system: red blood cells
Method: The levitation of red blood cells (RBC) was as follows. Blood samples from healthy donors were received from Stanford University Blood Center. Whole blood was diluted at varying ratios in PBS containing 30 mM Gd^+. Concentrations were described in the results. Concentrations of 450 and 90 million cells/mL of blood were used to measure blood stabilization time. Varying concentrations of blood, ranging from 250 to 0.8 million cells/mL were used to correlate the width of the blood band and cell concentrations.
Referring now to FIGS. 7A-7D, the effect of drugs was monitored using the levitation device. […] FIG. 7D illustrates the actual images that were analyzed to produce the plots of FIGS. 7B and 7C. In FIG. 7D, a certain density beads was added each time for calibration experiments.
Images were taken over time in 60 minutes. […] FIG. 6B is then a graph showing the area analysis. Area of the blood were measured using an image) script developed in the lab. […] Looking at FIG. 6C, the levitation height is measured using same script. Height is directly correlated with density of cells.

| SMILES | spheroid viability (calcein/ethidium homodimer live/dead assay) (3T3 cells) | levitation height of red blood cells (red blood cells; 75 mg/mL chloroquine spiked into red blood cells, with increasing time of exposure, FIG. 7A) | levitation height of blood sample in capillary channel (red blood cells; chloroquine at 7.5 mg/mL and 75 mg/mL, Sample-1, Sample-2, Sample-3, especially after the high dosage, FIG. 8) | density of blood (from levitation height) (red blood cells; i-LEV, higher drug concentration, within 50 minutes, FIG. 6C) |
| --- | --- | --- | --- | --- |
| O=C([O-])CN1CCN(CC(=O)[O-])CCN([C@H](CO)[C@H](O)CO)CCN(CC(=O)[O-])CC1.[Gd+3] [Gd^+] | majority of the cells in the aggregates are alive |  |  |  |
| CCN(CC)CCCC(C)Nc1ccnc2cc(Cl)ccc12 (stereo not shown) [chloroquine] |  | decreases | levels out at a very low height | higher density |
